Source: the NIST ThermoML archive (doi:10.1021/je020154p)
Numbers after ± are expanded uncertainties.

Conditions: Liquid

vapor or sublimation pressure (268.15 K) | vapor or sublimation pressure (278.15 K) | vapor or sublimation pressure (283.15 K) | vapor or sublimation pressure (288.15 K) | vapor or sublimation pressure (298.15 K) | vapor or sublimation pressure (308.15 K) | vapor or sublimation pressure (318.15 K) | Compound
407.9 ± 1.5 kPa | 549.4 ± 1.8 kPa | 636.4 ± 2 kPa | 735 ± 2.2 kPa | 954.8 ± 2.7 kPa | 1213 ± 3.3 kPa | 1530.8 ± 4.1 kPa | CCC [propane]
695.4 ± 2.1 kPa | 952 ± 2.6 kPa | 1102.2 ± 3 kPa | 1281.2 ± 3.4 kPa | 1685.6 ± 4.5 kPa | 2185.2 ± 5.7 kPa | 2794.8 ± 7.2 kPa | FCF [difluoromethane]
